After the bases stand the sugars from the 5' end (letter, count) and the backbone: PS all phosphorothioate, else s phosphorothioate and o phosphodiester by linkage. Methylation of C is not given here. l = locked nucleic acid (LNA); d = 2'-deoxy (DNA)
Biological target: SNHG14
Conditions: ASO
[1] = Mouse Primary Neuronal Cell, 0.005 µM

Row | Sequence | target mRNA inhibition (Human Neuronal Cell, 7.5 µM) [%] | also measured
1 | TTTTTATACCTTTCTTTAAC (sugars ldllddddddddddlldlll, PS) | 57 | 
2 | TTTTATACCTTTCTTTAACC (sugars l1 d5 l1 d10 l3, PS) | 38 | 
3 | TTATAGCCATTCTATCT (sugars lddlddddddddlddll, PS) | 17 | 
4 | GTTCTACTATACTTTCCT (sugars l1 d2 l1 d11 l3, PS) | 62 | 
5 | TTATAGCCATTCTATCT (sugars l2 d11 l1 d1 l2, PS) | 56 | 
6 | AGTTCTACTATACTTTC (sugars llddlddddddldllll, PS) | 18 | 
7 | AATTATTTATACACCATCAT (sugars lddllldddddddldlddll, PS) | 71 | 
8 | CAGCAGGCAGATAACCTC (sugars l3 d12 l3, PS) |  | target mRNA inhibition (Human Neuronal Cell, 0.2 µM): -4%; target mRNA inhibition (Human Neuronal Cell, 1 µM): 18%; target mRNA inhibition (Human Neuronal Cell, 5 µM): 21%
9 | GTTCTACTATACTTTCCT (sugars lddldldddddddlddll, PS) | 55 | 
10 | GCACATTCTTTCTATAC (sugars l2 d2 l1 d9 l3, PS) | 62 | 
11 | GTTTCCATCTACTATTAA (sugars llldldddddddllddll, PS) | 28 | 
12 | CAACATTATTAACCACCTT (sugars lldlldddddddddldlll, PS) | 49 | 
13 | AAAGATCATTCTCAACAA (sugars ldddllddddddlldlll, PS) | 33 | 
14 | TTTACACTTAATTATACT (sugars l2 d12 l4, PS) |  | target mRNA inhibition (Human Neuronal Cell, 0.2 µM): 7%; target mRNA inhibition (Human Neuronal Cell, 1 µM): 6%
15 | TTATAGCCATTCTATCT (sugars llddlddddddldddll, PS) | 45 | 
16 | TACTCTGCAATACACC (sugars l1 d1 l1 d10 l3, PS) | 60 | 
17 | GCATTCAACCCTAATC (sugars l4 d10 l2, PS) |  | target mRNA inhibition (Human Neuronal Cell, 0.2 µM): 46%; target mRNA inhibition (Human Neuronal Cell, 1 µM): 47%
18 | GTTCTACTATACTTTC (sugars l4 d10 l2, PS) |  | target mRNA inhibition (Human Neuronal Cell, 0.2 µM): 61%; target mRNA inhibition (Human Neuronal Cell, 1 µM): 66%
19 | TATAGACCCAAACTAT (sugars l3 d10 l3, PS) |  | target mRNA inhibition (Human Neuronal Cell, 0.2 µM): 15%; target mRNA inhibition (Human Neuronal Cell, 1 µM): 26%
20 | TTTTAACCAGAGTGGCAT (sugars l4 d11 l3, PS) | 56 | 
21 | CCTACATCTCATACTT (sugars l2 d12 l2, PS) |  | target mRNA inhibition (Human Neuronal Cell, 0.2 µM): -3%; target mRNA inhibition (Human Neuronal Cell, 1 µM): -3%; target mRNA inhibition (Human Neuronal Cell, 5 µM): 11%
22 | TTATAGCCATTCTATCT (sugars ldddlddddddllddll, PS) | 16 | 
23 | CCTTTAGCATTTCTATT (sugars l2 d11 l4, PS) |  | target mRNA inhibition (Human Neuronal Cell, 0.2 µM): 38%; target mRNA inhibition (Human Neuronal Cell, 1 µM): 59%
24 | CCATCTAATGATTATT (sugars l4 d10 l2, PS) |  | target mRNA inhibition (Human Neuronal Cell, 0.2 µM): 26%; target mRNA inhibition (Human Neuronal Cell, 1 µM): 21%
25 | CTACATCTCATACTTGC (sugars l2 d12 l3, PS) |  | target mRNA inhibition [1]: 97%

Row | Sequence | target mRNA inhibition (Human Neuronal Cell, 7.5 µM) [%] | also measured
26 | TTCAAGAATTCTCTCC (sugars l2 d10 l4, PS) |  | target mRNA inhibition (Human Neuronal Cell, 0.2 µM): 46%; target mRNA inhibition (Human Neuronal Cell, 1 µM): 50%
27 | TTTATCAATATCTTCTCACT (sugars ldddddddddddddldldll, PS) | 53 | 
28 | TACCTACATCTCATACTT (sugars l4 d12 l2, PS) |  | target mRNA inhibition (Human Neuronal Cell, 0.2 µM): -19%; target mRNA inhibition (Human Neuronal Cell, 1 µM): 3%; target mRNA inhibition (Human Neuronal Cell, 5 µM): 7%; target mRNA inhibition [1]: 94.8%
29 | GCACATTCTTTCTATACCT (sugars l1 d3 l1 d12 l2, PS) | 48 | 
30 | AATTTTTTTCTTACTATCTT (sugars llllddldddddddldddll, PS) | 49 | 
31 | CTCCAACATAGATCCT (sugars l3 d10 l3, PS) |  | target mRNA inhibition (Human Neuronal Cell, 0.2 µM): 44%; target mRNA inhibition (Human Neuronal Cell, 1 µM): 54%
32 | ATCCAAAGTTTCTTTC (sugars l4 d10 l2, PS) |  | target mRNA inhibition (Human Neuronal Cell, 0.2 µM): 43%; target mRNA inhibition (Human Neuronal Cell, 1 µM): 34%
33 | AGATCATTCTCAACAATT (sugars l1 d3 l2 d6 l6, PS) | 54 | 
34 | CTCAAAGATCATTCTCA (sugars l1 d1 l3 d8 l4, PS) | 66 | 
35 | ATTGATTCAATTCCCTT (sugars llddldddddddldlll, PS) | 50 | 
36 | CCTACATCTCATACTTGC (sugars l2 d14 l2, PS) |  | target mRNA inhibition (Human Neuronal Cell, 0.2 µM): 4%; target mRNA inhibition (Human Neuronal Cell, 1 µM): 21%; target mRNA inhibition (Human Neuronal Cell, 5 µM): 25%; target mRNA inhibition [1]: 92.2%
37 | ATCATTCTCAACAATTAA (sugars l5 d8 l1 d1 l3, PS) | 59 | 
38 | TTTTTTTCTTACTATCTTCA (sugars lddddddddddddldlddll, PS) | 55 | 
39 | TTATAGCCATTCTATCT (sugars lddldddddddldllll, PS) | 22 | 
40 | AAAGATCATTCTCAACAA (sugars ldllldddddddlldlll, PS) | 65 | 
41 | TTATAGCCATTCTATCT (sugars ldldlddddddldddll, PS) | 47 | 
42 | TTTTATACCTTTCTTTAACC (sugars ldlddddddddddlldddll, PS) | 53 | 
43 | GTTCTACTATACTTTCCT (sugars lddldlddddddddddll, PS) | 56 | 
44 | CAGCTTTTAACCAGAGTGG (sugars l1 d15 l3, PS) | 69 | 
45 | AAGATCATTCTCAACAAT (sugars l4 d9 l5, PS) | 52 | 
46 | ACTCTGCAATACACCAA (sugars llddlddddddldldll, PS) | 33 | 
47 | TTGATTCAATTCCCTTA (sugars l1 d2 l1 d9 l4, PS) | 69 | 
48 | CAGCCATAAACTATAT (sugars l4 d10 l2, PS) |  | target mRNA inhibition (Human Neuronal Cell, 0.2 µM): 15%; target mRNA inhibition (Human Neuronal Cell, 1 µM): 7%
49 | GATCATTCTCAACAATTAA (sugars lddlldddddddlddllll, PS) | 55 | 
50 | ATATTGATTCAATTCCC (sugars llldldddddddlddll, PS) | 52 | 

— the OligoGym collection
